Cc1nc(N)nc(N)n1
solubility (mole fraction)
Conditions	283.15 K	288.15 K	293.15 K	298.15 K	303.15 K	308.15 K	313.15 K	318.15 K	323.15 K
in 1,4-dioxane	0.000584	0.000676	0.000782	0.000899	0.00107	0.00126	0.00152	0.00177	0.00205
in DMF	0.00103	0.0012	0.00133	0.00151	0.0018	0.00209	0.00247	0.00283	0.00325
in acetonitrile	9.52e-05	0.000117	0.000141	0.00018	0.000228	0.000287	0.000345	0.000426	0.000523
in ethanol	0.000226	0.000258	0.000315	0.000386	0.000485	0.000592	0.000688	0.000845	0.000999
in ethyl acetate	0.000671	0.00078	0.000928	0.00104	0.00125	0.00142	0.00171	0.00198	0.00229
in ethylene glycol	0.000797	0.000935	0.00109	0.00121	0.00145	0.00164	0.00193	0.00225	0.00259
in isobutanol	0.000392	0.000454	0.000551	0.000663	0.000792	0.000931	0.0011	0.00127	0.00153
in isopropanol	0.00027	0.000325	0.000393	0.00047	0.000587	0.000698	0.000808	0.000973	0.00115
in methanol	0.000159	0.000192	0.000235	0.000289	0.000365	0.000434	0.000553	0.000636	0.000782
in n-butanol	0.000477	0.000536	0.00064	0.000764	0.000919	0.00111	0.00131	0.0015	0.00177
in n-propanol	0.000321	0.000385	0.000452	0.00054	0.000689	0.000836	0.000985	0.00115	0.00132
in water	0.000122	0.000146	0.000182	0.000228	0.000285	0.000362	0.000426	0.000521	0.000633

— BigSolDB 2.1
